Experimental data published in US20250127906A1, “SMALL-MOLECULE DEGRADERS OF CDK8 AND CDK19” (University of South Carolina, priority 2021, published 2025).

Experiments:
[1] = Serum drug concentrations in CD-1 mice (LCMSMS); assay type: in vivo; conditions: female CD-1 mice, i.p. 15 mg/kg, 15 min and 1 hr
Description: For preliminary evaluation of the bioavailability of the PROTACs, IA7882 and IA7886 were administered to female CD-1 mice via intraperitoneal (i.p.) injection at the dose of 15 mg/kg. Drug concentrations were measured by LCMSMS analysis of serum samples collected at 15 min and 1 hr time point.

CDK19 [2] = target: T1, CDK19 (Homo sapiens, UniProt Q9BWU1); test: CDK19 degradation in HEK-293 cells with CRISPR knockout of CCNC; assay type: cell-based; set-up: a derivative of HEK-293cells with CRISPR-mediated knockout of CCNC; endogenous in cells; host or cells: HEK-293 with CRISPR knockout of CCNC; conditions: HEK-293 CCNC-knockout cells, 24 hr treatment
Description: (§1) This cell line, however, is unique in lacking Cyclin C (CCNC), the binding partner of CDK8/19. To test if the absence of CDK8-bound CCNC was responsible for the loss of IA7843 CDK8-degrading activity, we have tested the effect of IA7843 on a derivative of HEK-293cells with CRISPR-mediated knockout of CCNC.
Target sequence in this assay (Q9BWU1 whole entry): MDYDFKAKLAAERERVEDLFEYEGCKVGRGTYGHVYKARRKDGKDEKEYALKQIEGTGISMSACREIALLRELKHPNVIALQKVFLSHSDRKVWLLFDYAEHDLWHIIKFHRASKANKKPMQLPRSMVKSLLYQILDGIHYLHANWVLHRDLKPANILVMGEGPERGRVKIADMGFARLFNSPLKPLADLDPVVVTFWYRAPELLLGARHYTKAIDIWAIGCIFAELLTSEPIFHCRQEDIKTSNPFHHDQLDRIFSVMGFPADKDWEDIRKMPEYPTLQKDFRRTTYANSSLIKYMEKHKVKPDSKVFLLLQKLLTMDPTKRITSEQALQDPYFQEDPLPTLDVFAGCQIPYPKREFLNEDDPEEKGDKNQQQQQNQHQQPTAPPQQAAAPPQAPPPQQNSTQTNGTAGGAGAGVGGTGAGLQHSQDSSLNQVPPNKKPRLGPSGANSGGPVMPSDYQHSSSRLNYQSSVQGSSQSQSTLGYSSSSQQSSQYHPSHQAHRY

CDK8 [3] = target: T2, CDK8 (Homo sapiens, UniProt P49336); test: CDK8 degradation in Loucy T-cell leukemia cells lacking Cyclin C; assay type: cell-based; set-up: endogenous in cells; host or cells: Loucy; conditions: Loucy cells (lacking CCNC), 24 hr treatment
Description: as §1
Target sequence in this assay (P49336 whole entry): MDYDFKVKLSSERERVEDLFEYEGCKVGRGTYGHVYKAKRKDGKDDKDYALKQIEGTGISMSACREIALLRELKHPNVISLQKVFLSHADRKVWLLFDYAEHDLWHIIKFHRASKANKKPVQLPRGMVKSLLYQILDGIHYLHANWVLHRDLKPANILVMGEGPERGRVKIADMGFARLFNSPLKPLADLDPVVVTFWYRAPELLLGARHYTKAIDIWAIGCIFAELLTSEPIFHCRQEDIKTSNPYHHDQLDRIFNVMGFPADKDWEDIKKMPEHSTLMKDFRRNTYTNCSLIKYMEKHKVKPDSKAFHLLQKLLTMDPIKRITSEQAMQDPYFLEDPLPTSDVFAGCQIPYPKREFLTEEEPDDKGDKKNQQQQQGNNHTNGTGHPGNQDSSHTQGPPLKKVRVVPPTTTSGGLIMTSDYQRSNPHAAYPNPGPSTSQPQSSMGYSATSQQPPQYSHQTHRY

CDK8 [4] = target: T2, CDK8; test: CDK8 degradation in HEK-293 cells (Western blot, normalized by GAPDH); assay type: cell-based; set-up: endogenous in cells; host or cells: HEK-293; conditions: HEK-293 cells
How it was run: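 HEK-293 cells were treated for 24 h with or without compound, at 1 μM or 0.3 μM for single-point testing. RIPA lysates were immunoblotted for CDK8, and densitometry gave levels normalized to GAPDH. DC50 is the concentration that reduces CDK8 to half its level in untreated cells.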
Target sequence in this assay (P49336 whole entry): as above
Target sequence in this assay (P24863 whole entry partner): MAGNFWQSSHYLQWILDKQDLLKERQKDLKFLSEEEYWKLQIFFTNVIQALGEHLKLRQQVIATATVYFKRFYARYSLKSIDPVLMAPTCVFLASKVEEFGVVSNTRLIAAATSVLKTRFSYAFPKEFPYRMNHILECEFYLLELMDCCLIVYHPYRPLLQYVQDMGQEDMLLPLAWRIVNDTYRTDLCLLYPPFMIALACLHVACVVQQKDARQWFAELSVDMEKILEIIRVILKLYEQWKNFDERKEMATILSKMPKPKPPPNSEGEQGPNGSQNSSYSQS

CCL12 = CCL12 mRNA expression in CT26 tumors in Balb/c mice (QPCR); assay type: in vivo; conditions: oral gavage 20 mg/kg, 2, 8 or 24 hrs after dosing
Description: (§2) CT26 cells were injected subcutaneously into syngeneic Balb/c female mice and allowed to grow to 150˜200 mm^3. Tumor-bearing mice then received PROTACs IA7882 or IA7886 by oral gavage at 20 mg/kg in 30% propylene glycol/70% PEG-400 vehicle. Tumors were collected 2, 8 or 24 hrs after dosing and used to measure protein levels of CDK8, pS727 STAT1 and total STAT1 (by western blotting) and mRNA expression of CCL12, a gene that is inhibited by different CDK8/19 inhibitors in CT26 tumors in vivo (by QPCR).

CDK8 [5] = target: T2, CDK8; test: CDK8 degradation in HEK-293 cells with CRISPR knockout of CCNC; assay type: cell-based; set-up: a derivative of HEK-293cells with CRISPR-mediated knockout of CCNC; endogenous in cells; host or cells: HEK-293 with CRISPR knockout of CCNC; conditions: HEK-293 CCNC-knockout cells, 24 hr treatment
Description: as §1
Target sequence in this assay (P49336 whole entry): as the sequence (P49336 whole entry) above

CDK19 [6] = target: T1, CDK19; test: CDK19 degradation in Loucy T-cell leukemia cells lacking Cyclin C; assay type: cell-based; set-up: endogenous in cells; host or cells: Loucy; conditions: Loucy cells (lacking CCNC), 24 hr treatment
Description: as §1
Target sequence in this assay (Q9BWU1 whole entry): as the sequence (Q9BWU1 whole entry) above

CDK8 [7] = target: T3, CDK8 (Mus musculus, UniProt Q8R3L8); test: CDK8 protein level in CT26 tumors in Balb/c mice; assay type: in vivo; set-up: from tissue; host or cells: subcutaneous CT26 tumours in Balb/c female mice; conditions: oral gavage 20 mg/kg, 2, 8 or 24 hrs after dosing
T3 sequence (Q8R3L8 1-464): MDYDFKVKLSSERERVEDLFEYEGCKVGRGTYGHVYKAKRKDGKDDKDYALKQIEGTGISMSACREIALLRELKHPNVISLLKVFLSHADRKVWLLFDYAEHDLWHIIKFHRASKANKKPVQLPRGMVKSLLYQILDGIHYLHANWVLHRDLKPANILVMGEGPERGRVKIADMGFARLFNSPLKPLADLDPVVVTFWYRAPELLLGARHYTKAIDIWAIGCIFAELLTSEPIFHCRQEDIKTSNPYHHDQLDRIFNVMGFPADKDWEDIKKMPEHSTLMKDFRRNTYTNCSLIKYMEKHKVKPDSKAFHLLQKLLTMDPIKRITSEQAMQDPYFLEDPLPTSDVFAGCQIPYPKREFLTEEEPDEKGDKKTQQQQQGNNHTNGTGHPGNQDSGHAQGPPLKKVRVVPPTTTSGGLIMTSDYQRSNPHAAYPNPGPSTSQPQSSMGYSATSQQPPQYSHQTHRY
T3 sequence (Q62447 1-283 partner): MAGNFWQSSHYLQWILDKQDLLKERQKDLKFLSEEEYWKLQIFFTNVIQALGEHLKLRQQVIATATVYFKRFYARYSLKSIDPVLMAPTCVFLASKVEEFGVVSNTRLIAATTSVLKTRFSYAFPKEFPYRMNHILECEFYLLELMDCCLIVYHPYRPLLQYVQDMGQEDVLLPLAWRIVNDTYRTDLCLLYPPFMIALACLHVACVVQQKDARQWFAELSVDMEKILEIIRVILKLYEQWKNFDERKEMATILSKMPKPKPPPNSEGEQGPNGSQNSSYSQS
Description: as §2

CDK19 [8] = target: T1, CDK19; test: CDK19 degradation in HEK-293 cells (Western blot); assay type: cell-based; set-up: PROTACs on CDK8 and CDK19 degradation in HEK-293cells; endogenous in cells; host or cells: HEK-293; conditions: concentration degrading CDK19 to half of level in untreated cells
Description: Furthermore, the degradation of both CDK8 and CDK19 by the PROTACs is also seen to decrease the levels of their binding partner cyclin C (CCNC) (FIG. 2B, D, E), which is known to be protected from proteolytic degradation by its interaction with CDK8 (Barette et al., 2001).
FIGS. 2F and 2G show the effects of different concentrations of potent Senexin C- and BI-1347-based PROTACs on CDK8 and CDK19 degradation in HEK-293cells. Based on these assays, we calculated DC50 values that correspond to PROTAC concentrations inducing degradation of CDK8 and CDK19 to the half of protein level in untreated cells. The corresponding CDK8 DC50 values were 46 nM for IA7843, 6.6 nM for IA7882 and 2.8 nM for IA7886, and CDK19 DC50 values were 1 μM for IA7843, 25 nM for IA7882 and 10 nM for IA7886.
Target sequence in this assay (Q9BWU1 whole entry): as the sequence (Q9BWU1 whole entry) above
Target sequence in this assay (P24863 whole entry partner): as the sequence (P24863 whole entry partner) above

[9] = test system: pS727 STAT1 and total STAT1; test: pS727 STAT1 and total STAT1 in CT26 tumors in Balb/c mice; assay type: in vivo; conditions: oral gavage 20 mg/kg, 2, 8 or 24 hrs after dosing
Description: as §2

CDK19 degradation (in words) (CDK19 [2]): efficiently degraded CDK8 and CDK19
CDK8 degradation (in words) (CDK8 [3]): efficiently degraded CDK8 and CDK19
% CDK8 remaining (CDK8 [4]; 24 hours, tested at 1 μM): 12%
DC50 (CDK8 [4]; concentration degrading CDK8 to half of level in untreated cells): 6.6 nM
CDK8 degradation (in words) (CDK8 [5]): efficiently degraded CDK8 and CDK19
CDK19 degradation (in words) (CDK19 [6]): efficiently degraded CDK8 and CDK19
DC50 (CDK19 [8]): 25 nM
SMILES: O=C1CCC(N2C(=O)c3cccc(NCCOCCOCCOCCOCCC(=O)N4CCN(C(=O)Cn5cc(-c6ccc(-c7cncc8ccccc78)cc6)cn5)CC4)c3C2=O)C(=O)N1 (centres unmarked) [IA7882, 2-(2,6-dioxo-3-piperidyl)-4-[2-[2-[2-[2-[3-[4-[2-[4-[4-(4-isoquinolyl)phenyl]pyrazol-1-yl]acetyl]piperazin-1-yl]-3-oxo-propoxy]ethoxy]ethoxy]ethoxy]ethylamino]isoindoline-1,3-dione]
serum drug concentrations [1]: readily measurable and were higher for IA7882 than for IA7886
levels of CCL12 mRNA in tumors (CCL12): decreased in tumors treated with IA7882 or IA7886 2 hrs or 8 hrs (but not 24 hrs) after dosing
CDK8 levels in tumor extracts (CDK8 [7]): decreased in most of the tumor extracts collected 2 hrs or 8 hrs after dosing
pS727 STAT1 and total STAT1 in tumors [9]: decreased in most of the tumors collected 2 hrs or 8 hrs after dosing
